Source: US11485751B2, “Apramycin derivatives” (WAYNE STATE UNIVERSITY, priority 2017, dated 2022)
Values after ≈ are worked out from the molar mass of the structure shown.

Legend:
AG038 MRSA = assay: Antibacterial activity, clinical isolate AG038; type: cell-based
From the text: (§1) Minimal inhibitory concentrations (MIC) have been determined by broth microdilution assays (CLSI. Methods for Dilution Antimicrobial Susceptibility Tests for Bacteria That Grow Aerobically; Approved Standard—Tenth Edition. CLSI document M07-A10. Wayne, Pa.: Clinical and Laboratory Standards Institute; 2015.).
(§2) Table 4 and 5 show the antibacterial activity of the compounds of the invention against bacterial reference strains (table 4) and against representative clinical isolates (table 5).

[1] = tested on: SZ380, Mycobacterium smegmatis; assay: MIC reference strain SZ380; type: cell-based; conditions: Mycolicibacterium smegmatis, read-out: MIC SZ380 M. smegmatis
From the text: as §1, §2
(§3) Legend to Tables: GEN, gentamicin; AMK, amikacin; PLZ, plazomicin; APR, apramycin; AG212, Escherichia coli ATCC25922; AG215, Klebsiella pneumonia; AG220, Pseudomonas aeruginosa ATCC27853; AG225, Acinetobacter baumannii pittii; AG290, Enterobacter cloacae; […], Mycobacterium smegmatis. MICs for AG192 have been determined in the presence of 0.5 μg/mL of ampicillin in the medium to mimic the synergistic effect of aminoglycoside and β-lactam antibiotics combination therapy in the treatment of Enterococcus infections in humans.

[2] = tested on: E. coli AG153 AAC(3)-II APH(3′)-II rmtB; assay: Activity against G1405-methylated 16S-rRNA, clinical isolate AG153; type: cell-based
From the text: as §1

[3] = tested on: human mitochondrial ribosomes; assay: in-vitro translation assay, human mitochondrial (human chimeric) ribosomes; type: biochemical
From the text: (§4) IC50 values for bacterial, human chimeric, and rabbit reticulocyte ribosomes have been determined by in-vitro translation assays as described previously (Proc. Nat. Ac. Sci USA 2012, 109(27):10984-10989).
(§5) Minimal inhibitory concentrations (MICs, […]) against clinical isolates from Institute of Medical Microbiology, Univ. Zurich, and the IC50 values for bacterial, human mitochondrial and human cytosolic ribosomes are indicated.

AG173 E. coli AAC(3)-IV = assay: Antibacterial activity, clinical isolate AG173; type: cell-based
From the text: as §1, §2

[4] = tested on: K. pneum. AG269 AAC(3)-II AAC(6′)-I rmtB; assay: Activity against G1405-methylated 16S-rRNA, clinical isolate AG269; type: cell-based
From the text: as §1

[5] = tested on: clinical isolates carrying AAC(3)-IV; assay: MIC broth microdilution, AAC(3)-IV; type: cell-based; conditions: read-out: MIC AAC(3)-IV
From the text: as §1, §5
(§6) Minimal inhibitory concentrations (μg/ml) against clinical isolates from Institute of Medical Microbiology, Univ. Zurich, and the IC50 values for bacterial, human mitochondrial and human cytosolic ribosomes are indicated.
(§7) The Minimal inhibitory concentrations (MICs, μg/ml) against clinical isolates from Institute of Medical Microbiology, Univ Zurich, and the IC50 values for bacterial, human mitochondrial and human cytosolic ribosomes are indicated.

[6] = tested on: AG225, Acinetobacter baumannii pittii; assay: MIC reference strain AG225; type: cell-based; conditions: Acinetobacter baumannii, read-out: MIC AG225 A. baumannii
From the text: as §1, §2, §3

[7] = tested on: Engineered E. coli pH424 armA; assay: Activity against G1405-methylated 16S-rRNA, E. coli pH424 armA; type: cell-based
From the text: as §1

[8] = tested on: human cytosolic ribosomes; assay: in-vitro translation assay, human cytosolic ribosomes; type: biochemical
From the text: as §4, §5

[9] = tested on: AG212, Escherichia coli ATCC25922; assay: MIC reference strain AG212; type: cell-based; conditions: Escherichia coli, ATCC25922, read-out: MIC AG212 E. coli
From the text: as §1, §2, §3

bacterial ribosomes = assay: in-vitro translation assay, bacterial ribosomes; type: biochemical
From the text: as §4, §5

[10] = tested on: AG215, Klebsiella pneumonia; assay: MIC reference strain AG215; type: cell-based; conditions: Klebsiella pneumoniae, read-out: MIC AG215 K. pneumonia
From the text: as §1, §2, §3

ATCC19977 M. abcessus = assay: MIC reference strain ATCC19977; type: cell-based; conditions: read-out: MIC ATCC19977 M. abcessus
From the text: as §1, §2

[11] = tested on: AG220, Pseudomonas aeruginosa ATCC27853; assay: MIC reference strain AG220; type: cell-based; conditions: Pseudomonas aeruginosa, ATCC27853, read-out: MIC AG220 P. aeruginosa
From the text: as §1, §2, §3

[12] = tested on: AG290, Enterobacter cloacae; assay: MIC reference strain AG290; type: cell-based; conditions: Enterobacter cloacae, read-out: MIC AG290 E. cloacae
From the text: as §1, §2, §3

[13] = tested on: A baum. AG227 APH(3′)-I armA; assay: Activity against G1405-methylated 16S-rRNA, clinical isolate AG227; type: cell-based
From the text: as §1

WT clinical isolates = assay: MIC broth microdilution, WT; type: cell-based; conditions: read-out: MIC WT, clinical isolates, IMM Univ. Zurich; wild type
From the text: as §1, §5, §6, §7

[14] = tested on: Engineered E. coli pH430 WT; assay: Activity, engineered E. coli pH430 WT; type: cell-based; conditions: wild type
From the text: as §1

[15] = tested on: Enterob. AG302 AAC(3)-II AAC(6′)-I rmtC; assay: Activity against G1405-methylated 16S-rRNA, clinical isolate AG302; type: cell-based
From the text: as §1

AG031 P. aer. APH(3′)-II = assay: Antibacterial activity, clinical isolate AG031; type: cell-based; parameters: unit not given here
From the text: as §1, §2

AG001 E. coli WT = assay: Antibacterial activity, clinical isolate AG001; type: cell-based
From the text: as §1, §2

isolates carrying apmA = assay: MIC broth microdilution, apmA; type: cell-based; conditions: apmA resistance gene
From the text: as §1, with “2015.). […]” for “2015.).”
as §6, §7

AG163 E. coli APH(3′)-I = assay: Antibacterial activity, clinical isolate AG163; type: cell-based
From the text: as §1, §2

Structure (SMILES) | Antibacterial activity AG038 MRSA (AG038 MRSA) | MIC [1] [µg/mL] | Activity E. coli AG153 AAC(3)-II APH(3′)-II rmtB [2] | IC50 [3] [µM] | Antibacterial activity AG173 E. coli AAC(3)-IV (AG173 E. coli AAC(3)-IV) | Activity K. pneum. AG269 AAC(3)-II AAC(6′)-I rmtB [4] | MIC [5] [µg/mL] | MIC [6] [µg/mL] | Activity E. coli pH424 armA [7] | IC50 [8] [µM] | MIC [9] [µg/mL] | IC50 (bacterial ribosomes) [µM] | MIC [10] [µg/mL] | MIC (ATCC19977 M. abcessus) [µg/mL] | MIC [11] [µg/mL] | MIC [12] [µg/mL] | Activity A baum. AG227 APH(3′)-I armA [13] | MIC (WT clinical isolates) [µg/mL] | Activity E. coli pH430 WT [14] | Activity Enterob. AG302 AAC(3)-II AAC(6′)-I rmtC [15] | further results
CNC1C(O)C2O[C@H](O[C@@H]3C(N)C[C@@H](N)[C@@H](O)[C@H]3OCC(O)CO)C(N)C[C@@H]2O[C@@H]1O[C@H]1OC(CO)[C@@H](N)[C@H](O)C1O (some centres unmarked) [DC208] | 8-16 | 0.5 | 8 | 434 | >64 | 4 | 64 (≈ 104 µM) | 16 | 2 | > 1000 | 8 | 0.21 | 4 | 2 (≈ 3.26 µM) | 16 to 32 | 4 | 8 | 4 to 8 (≈ 6.52 to 13 µM) | 4-8 | 4 | Antibacterial activity AG031 P. aer. APH(3′)-II (AG031 P. aer. APH(3′)-II): 32; Antibacterial activity AG001 E. coli WT (AG001 E. coli WT): 8; MIC (isolates carrying apmA): > 128 µg/mL
CN[C@H]1C(O)C2O[C@H](O[C@@H]3C(N)C[C@@H](N)[C@@H](O)[C@H]3OCC(O)CN)C(N)C[C@@H]2O[C@@H]1O[C@H]1OC(CO)[C@@H](N)[C@H](O)C1O (some centres unmarked) [DC209] | 1-2 | 0.125 | 2-4 | 146 | 32 | 1 | 8 (≈ 13.1 µM) | 4 | 2 | 105 | 2 to 4 | 0.04 | 1 | 0.5 to 1 (≈ 0.816 to 1.63 µM) | 2 to 4 | 1 | 2-4 | 2 to 4 (≈ 3.26 to 6.53 µM) | 2-4 | 2 | Antibacterial activity AG163 E. coli APH(3′)-I (AG163 E. coli APH(3′)-I): 4; Antibacterial activity AG031 P. aer. APH(3′)-II (AG031 P. aer. APH(3′)-II): 4; Antibacterial activity AG001 E. coli WT (AG001 E. coli WT): 2; MIC (isolates carrying apmA): 64 to 128 µg/mL (≈ 104 to 209 µM)
